Assay results taken from patent publication US8268874B2, “Anti-cancer compounds, synthesis thereof, and methods of using same” (University of Notre Dame du Lac, priority 2008, dated 2012).
Where two headings read alike, the source gives them in different places.

Experiments:
[1] = tested on: human breast cancer cell line MCF-7; experiment: NCI anti-cancer drug screen, growth inhibition of MCF-7 cells; format: cell-based
Description: (§1) For additional details pertaining to the assay, see, for example, Shoemaker, R. H., The NCI60 Human Tumour Cell line Anticancer Drug Screen, Nature Reviews, 6: 813-823, 2006, the disclosure of which is hereby incorporated by reference in its entirety.
(§2) Briefly, the cell lines comprising the National Cancer Institute Anti-cancer Drug Screen panel were obtained and processed as described previously. After an initial acquisition, in vitro expansion was followed by cryopreservation of a large number of master stock samples, for serial rethawing at 20-passage intervals. The parental cells included the small cell lung carcinoma cell line UMCC-1, the human leukemia cell line HL-60, estrogen receptor-positive MCF7 and ZR-75B human breast carcinoma cells, and estrogen receptor-negative MDA-MB231 human breast carcinoma cells. The parental cells were grown in monolayers or in suspension in Eagle's minimum essential medium containing 10% fetal bovine serum, 2 mM L-glutamine, 100 units/ml penicillin, and 100 μg/ml streptomycin in 5% CO2 at 37° C.
(§3) The current version of COMPARE is configured to calculate pairwise correlations with the log10 of one of the specific National Cancer Institute cell line activity parameters GI50, TGI, or LC50. The GI50 is the National Cancer Institute designation for a time zero-corrected IC50 value and is defined as the concentration of an agent that causes a 50% growth inhibition. Thus, log10 (GI50 values) for a seed or probe compound is correlated with the corresponding data from each compound in a database.

PC-3 (Prostate) = experiment: NCI anti-cancer drug screen, growth inhibition of PC-3 cells; format: cell-based; conditions: Homo sapiens; for IC50: Table 5
Description: as §1, §2, §3
Various analogs of the oxazole triazole scaffold were prepared and tested for their anti-cancer activity in various cellular assays (testing was done as described previously).

M. tuberculosis H37Rv = experiment: In vitro anti-tuberculosis activity, standard GAST assay; format: cell-based, Mycobacterium tuberculosis; conditions: in words
[2] = tested on: human leukemia cell line HL-60; experiment: In vitro anti-cancer activity against HL-60 cells; format: cell-based; conditions: Table 1
Description: as §1, §2, §3

[3] = tested on: vincristine-resistant leukemia cell line, HL-60 VCR, that overexpresses p-glycoprotein; experiment: In vitro anti-cancer activity against HL-60 VCR cells; format: cell-based, human; conditions: Table 1, p-glycoprotein overexpressing
Description: as §1, §2, §3

RXF 393 (Renal) = experiment: NCI anti-cancer drug screen, growth inhibition of RXF 393 cells; format: cell-based; conditions: Homo sapiens, Table 5
Description: as §1, §2
(§4) The current version of COMPARE is configured to calculate pairwise correlations with the log10 of one of the specific National Cancer Institute cell line activity parameters GI50, TGI, or LC50. […]

CAKI-1 (Renal) = experiment: NCI anti-cancer drug screen, growth inhibition of CAKI-1 cells; format: cell-based; conditions: Homo sapiens, Table 5
Description: as §1, §2, §4

SR (Leukemia) = experiment: NCI anti-cancer drug screen, growth inhibition of SR cells; format: cell-based; conditions: Homo sapiens, Table 5
Description: as §1, §2, §4

[4] = tested on: multiple cell lines of leukemia; experiment: NCI assay, multiple leukemia cell lines (FIG. 2); format: cell-based, human; conditions: applied at nanomolar concentrations
Description: FIG. 2 illustrates the potent anti-cancer activity of various compounds disclosed herein in the NCI assay using multiple leukemia cell lines, in accordance with various embodiments.
as §1

[5] = tested on: multiple colon cancer cell lines; experiment: NCI assay, multiple colon cancer cell lines (FIG. 3); format: cell-based, human; conditions: applied at nanomolar concentrations
Description: FIG. 3 illustrates the potent anti-cancer activity of various compounds disclosed herein in the NCI assay using multiple colon cancer cell lines, in accordance with various embodiments.
as §1

cell cycle = experiment: Cell cycle arrest (FIG. 5); format: cell-based
Description: FIG. 5 illustrates cell cycle arrest showing G2/M-phase arrest in cells treated with 1,2,3-triazole 9c (ND-6732), in accordance with various embodiments.
Without being bound by theory, it is believed that the anti-cancer activity of various disclosed compounds disclosed herein is due to antimitotic activity.

[6] = Homo sapiens, MCF7, Table 2, SAR truncation of aryl ether moiety, read-out: MCF7 IC50
[7] = Homo sapiens, MCF7, Table 5, read-out: IC50 MCF-7 (Breast)
[8] = Homo sapiens, MCF7, read-out: IC50 MCF-7 (Breast)
[9] = MCF7, Table 1, human breast cancer cell line MCF-7, read-out: IC50 MCF-7
[10] = Homo sapiens, MCF7, Table 3, SAR truncation of aryl carboxamide moiety, read-out: MCF7 IC50

O=C(NCc1cn(Cc2ccccc2)nn1)c1coc(-c2ccccc2)n1 [Compound 9a]
IC50 [1, 6]: 4 µM

O=C(NCc1cn(Cc2cccc(Oc3ccccc3)c2)nn1)c1coc(-c2ccc(Cl)cc2)n1 [ND-008186]
IC50 [1, 7]: 4 µM
IC50 (PC-3 (Prostate)): 2.4 µM

Cc1ccc(-c2nc(C(=O)NCc3cn(Cc4cccc(O[Si](C)(C)C(C)(C)C)c4)nn3)co2)cc1 [ND-008468]
IC50 [1, 8]: 15 µM
IC50 (PC-3 (Prostate)): 20 µM

OCc1cn(Cc2cccc(Oc3ccccc3)c2)nn1 [ND-008493]
IC50 [1, 7]: > 20 µM
IC50 (PC-3 (Prostate)): > 20 µM

COc1ccc(-c2ccc(CNCc3cn(Cc4ccc(Oc5ccccc5)cc4)nn3)s2)cc1 [ND-008174]
IC50 [1, 7]: 3 µM
IC50 (PC-3 (Prostate)): 10 µM

Mycobactin S [reference compound]
anti-tuberculosis activity (M. tuberculosis H37Rv): exhibits anti-tuberculosis activity

O=C(NCc1cn(Cc2cccc(Oc3ccccc3)c2)nn1)c1cocn1 [ND-008505]
IC50 [1, 7]: 1 µM
IC50 (PC-3 (Prostate)): 1 µM

O=C(NCc1cn(Cc2cccc(Oc3ccccc3)c2)nn1)c1coc(-c2ccccc2)n1 [Compound 9c]
GI50 ([1]; Homo sapiens, MCF7): 0.302 µM
IC50 [1, 6]: 0.5 µM
IC50 [1, 7]: 0.302 µM
IC50 [1, 9]: 0.5 µM
IC50 [2]: 7.9 µM
IC50 ([3]; Homo sapiens, HL60/VCR): 12.2 µM
GI50 (PC-3 (Prostate)): 0.504 µM
IC50 (PC-3 (Prostate)): 0.504 µM
IC50 (RXF 393 (Renal)): 0.299 µM
IC50 (CAKI-1 (Renal)): 0.392 µM
IC50 (SR (Leukemia)): 0.484 µM
growth inhibition of multiple cell lines of leukemia [4]: ≥ 50%
growth inhibition of multiple cell lines of colon cancer [5]: ≥ 50%
cell cycle arrest (cell cycle): cell cycle arrest at the G2M phase of mitosis

COc1ccc(CNC(=O)c2coc(-c3cccc(Cl)c3)n2)cc1OC [Compound 3]
anti-tuberculosis activity (M. tuberculosis H37Rv): active against M. tuberculosis

COc1ccc(-c2nc(C(=O)Nc3cn(Cc4ccc(Oc5ccccc5)cc4)nn3)co2)cc1 [ND-007887]
IC50 [1, 7]: 0.937 µM
IC50 (PC-3 (Prostate)): 1.25 µM

O=C(NCc1cn(C23CC4CC(CC(C4)C2)C3)nn1)c1coc(-c2ccc(Cl)cc2)n1 [ND-008471]
IC50 [1, 7]: > 20 µM
IC50 (PC-3 (Prostate)): > 20 µM

Cc1ccc(Cn2cc(CNC(=O)c3coc(-c4ccc(C)cc4)n3)nn2)cc1 [ND-008465]
IC50 [1, 7]: 8 µM
IC50 (PC-3 (Prostate)): 20 µM

CCCCCCCCn1cc(CNC(=O)c2coc(-c3ccc(C)cc3)n2)nn1 [ND-008469]
IC50 [1, 7]: 20 µM
IC50 (PC-3 (Prostate)): > 20 µM

COc1cc2c(cc1O)CC[C@@H]1[C@@H]2CC[C@]2(C)[C@@H](O)CC[C@@H]12 [2-methoxyestradiol]
IC50 ([1]; Table 1, human breast cancer cell line MCF-7, read-out: IC50 MCF-7): 1.3 µM
IC50 [2]: 9.15 µM
IC50 [3]: 48 µM

O=C(NCc1cn(Cc2cccc(Oc3ccccc3)c2)nn1)c1ccccn1 [Compound 14]
IC50 [1, 10]: 0.07 µM

CCCCCCCCn1cc(CNCc2coc(-c3ccc(OC)cc3)n2)nn1 [ND-008171]
IC50 [1, 7]: 15 µM
IC50 (PC-3 (Prostate)): > 100 µM

COc1ccc(-c2nc(CNCc3cn(Cc4ccc(Oc5ccccc5)cc4)nn3)co2)cc1 [ND-008169]
IC50 [1, 7]: 3 µM
IC50 (PC-3 (Prostate)): 10 µM

O=C(NCc1cn(Cc2cccc(Oc3ccccc3)c2)nn1)c1ccccn1 [ND-008504]
IC50 [1, 7]: 0.15 µM
IC50 (PC-3 (Prostate)): 0.3 µM

CC[C@]1(O)C[C@H]2CN(CCc3c([nH]c4ccccc34)[C@@](C(=O)OC)(c3cc4c(cc3OC)N(C=O)[C@H]3[C@@](O)(C(=O)OC)[C@H](OC(C)=O)[C@]5(CC)C=CCN6CC[C@]43[C@@H]65)C2)C1 [vincristine]
IC50 [1, 9]: 0.2 µM
IC50 [2]: 0.57 µM
IC50 ([3]; Homo sapiens, HL60/VCR): > 100 µM

O=C(OCc1ccccc1)[C@@H]1COC(c2ccccc2OCc2ccccc2)=N1 [Compound 2]
anti-tuberculosis activity (M. tuberculosis H37Rv): exhibited anti-tuberculosis activity with potency similar to that of Mycobactin S

Cc1ccc(-c2nc(C(=O)NCc3cn(C45CC6CC(CC(C6)C4)C5)nn3)co2)cc1 [ND-008470]
IC50 [1, 7]: > 20 µM
IC50 (PC-3 (Prostate)): > 20 µM

O=C(NCc1cn(Cc2cccc(Oc3ccccc3)c2)nn1)c1ccccc1 [Compound 16]
IC50 [1, 10]: 0.2 µM

CC(=O)NCc1cn(Cc2cccc(Oc3ccccc3)c2)nn1 [ND-008492]
IC50 [1, 7]: 6 µM
IC50 (PC-3 (Prostate)): 17 µM

Cc1ccc(-c2nc(C(=O)NCc3cn(Cc4cccc(Oc5ccccc5)c4)nn3)co2)cc1 [ND-008467]
IC50 [1, 7]: 0.3 µM
IC50 (PC-3 (Prostate)): 1 µM

CC(=O)NCc1cn(Cc2cccc(Oc3ccccc3)c2)nn1 [Compound 17]
IC50 [1, 10]: 6 µM

O=C(NCc1cn(Cc2cccc(Oc3ccccc3)c2)nn1)c1ccccc1 [ND-008506]
IC50 [1, 7]: 0.2 µM
IC50 (PC-3 (Prostate)): 0.5 µM

O=C(NCc1cn(Cc2cccc(Oc3ccccc3)c2)nn1)c1cocn1 [Compound 15]
IC50 [1, 10]: 1 µM

CC(C)(C)[Si](C)(C)Oc1cccc(Cn2cc(CNC(=O)c3coc(-c4ccc(Cl)cc4)n3)nn2)c1 [ND-008183]
IC50 [1, 8]: 13 µM
IC50 (PC-3 (Prostate)): > 50 µM

C#CCNC(=O)c1coc(-c2ccccc2)n1 [Compound 8a]
IC50 [1, 6]: > 20 µM
